Source: patent publication US20240218022A1, “ANTI-VISTA MACROCYCLIC PEPTIDES AND COMPOSITIONS” (BRISTOL-MYERS SQUIBB COMPANY, priority 2022, published 2024)
Starred links: 1 amine or outer side, 2 acyl side, 3 side chain; linkers in the order of their positions; H or OH if unused. Positions of bridges follow the written chain, without caps; N, C: chain ends. Non-standard residues stand in square brackets, D forms with d. Residues, ends and D or L forms follow the SMILES beside them. N(3-phenylpropyl)Gly = O=C(O)CNCCCc1ccccc1; Phe(3-Me) = Cc1cccc(C[C@H](N)C(=O)O)c1; γGlu = O=C(O)[C@H](CCC(=O)[*:2])N[*:1]; 2Nal = N[C@@H](Cc1ccc2ccccc2c1)C(=O)O; βAsp = O=C(O)[C@H](CC(=O)[*:2])N[*:1]; Ahp(2) = CCCCC[C@H](N)C(=O)O; NMeNle = CCCC[C@H](NC)C(=O)O; Tle = CC(C)(C)[C@H](N)C(=O)O; NMeV = CN[C@H](C(=O)O)C(C)C; Pip = O=C(O)[C@@H]1CCCCN1; NHexGly = CCCCCCNCC(=O)O; Nle = CCCC[C@H](N)C(=O)O; Orn = NCCC[C@H](N)C(=O)O; Aun = NCCCCCCCCCCC(=O)O; AEEA = NCCOCCOCC(=O)O

target: T1, mouse VISTA (mVISTA) (Mus musculus, UniProt Q9D659); assay: Cell-Based Binding High-Content Assay For mVISTA (HC CBA mVISTA); conditions: 293T cells expressing mouse VISTA; competition with biotinylated peptide (2 nM); read-out: HC CBA mVISTA IC50
T1 construct: expressed in transfected cells; host or cells: Human embryonic kidney 293T cells
T1 sequence (Q9D659 33-308): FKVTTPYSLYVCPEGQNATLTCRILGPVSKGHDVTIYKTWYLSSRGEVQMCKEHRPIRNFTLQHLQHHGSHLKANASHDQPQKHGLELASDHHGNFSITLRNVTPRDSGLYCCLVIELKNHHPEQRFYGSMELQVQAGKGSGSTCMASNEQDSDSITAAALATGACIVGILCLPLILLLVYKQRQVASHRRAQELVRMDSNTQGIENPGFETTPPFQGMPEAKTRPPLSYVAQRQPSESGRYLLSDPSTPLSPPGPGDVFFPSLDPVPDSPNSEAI
How it was run: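 mVISTA-293T, 4,000 cells/well; cpd ± washout step; biotin-peptide 2 nM final, 30 min RT; SA-Alexa 647 30 min; formaldehyde/Hoechst fix; HCS imaging; 4PL IC50.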

In order of rising IC50:
1. CCCCCCN1CC(=O)N[C@@H](Cc2ccc(O)cc2)C(=O)N[C@@H](CC(C)C)C(=O)NCC(=O)N[C@@H](CCCNC(=N)N)C(=O)N[C@@H](Cc2ccc(O)cc2)C(=O)N[C@@H](CCCCC)C(=O)N2CCC[C@H]2C(=O)N[C@@H](C(C)C)C(=O)N[C@@H](CO)C(=O)N[C@H](C(=O)NCC(=O)O)CSCC(=O)N[C@@H](Cc2ccccc2)C(=O)N[C@@H](Cc2ccc(O)cc2)C(=O)N[C@@H](CC(=O)O)C1=O [Example 1095] ({CH2CO}-FYD[NHexGly]YLGRY[Ahp(2)]PVSCG-OH; thioether N-14)  17.4 nM
2. CCCCCCN1CC(=O)N[C@@H](Cc2ccc(O)cc2)C(=O)N[C@@H](CCCCC)C(=O)NCC(=O)N[C@@H](CCCNC(=N)N)C(=O)N[C@@H](CC(C)C)C(=O)N[C@@H](CCCCC)C(=O)N2CCC[C@H]2C(=O)N[C@@H](C(C)C)C(=O)N[C@@H](CO)C(=O)N[C@H](C(=O)NCC(=O)O)CSCC(=O)N[C@@H](Cc2ccccc2)C(=O)N[C@@H](Cc2ccc(O)cc2)C(=O)N[C@@H](CC(=O)O)C1=O [Example 1044] ({CH2CO}-FYD[NHexGly]Y[Ahp(2)]GRL[Ahp(2)]PVSCG-OH; thioether N-14)  21.4 nM
3. CCCCCCN1CC(=O)N[C@@H](Cc2ccc(O)cc2)C(=O)N[C@@H](C(C)C)C(=O)NCC(=O)N[C@@H](CCCNC(=N)N)C(=O)N[C@@H](CC(C)C)C(=O)N[C@@H](CCCCC)C(=O)N2CCC[C@H]2C(=O)N[C@@H](C(C)C)C(=O)N[C@@H](CC(=O)O)C(=O)N[C@H](C(=O)N[C@@H](CO)C(=O)N[C@@H](CCCCN)C(=O)N[C@@H](CC(N)=O)C(=O)O)CSCC(=O)N[C@@H](Cc2ccc3ccccc3c2)C(=O)N[C@@H](Cc2ccc(O)cc2)C(=O)N[C@@H](CC(=O)O)C1=O [Example 1163] ({CH2CO}-[2Nal]YD[NHexGly]YVGRL[Ahp(2)]PVDCSKN-OH; thioether N-14)  22.6 nM
4. CCCCC[C@@H]1NC(=O)[C@H](CCCC)N(C)C(=O)[C@H](CCCN)NC(=O)[C@H](CC(N)=O)NC(=O)[C@H](CC(C)C)NC(=O)[C@H](Cc2ccc(O)cc2)NC(=O)CN(CCCc2ccccc2)C(=O)[C@H](CC(=O)O)NC(=O)[C@H](Cc2ccc(O)cc2)NC(=O)[C@H](Cc2ccccc2)NC(=O)CSC[C@@H](C(=O)NCC(N)=O)NC(=O)[C@H](CO)NC(=O)[C@H](C(C)C)NC(=O)[C@@H]2CCCN2C1=O [Example 1085] ({CH2CO}-FYD[N(3-phenylpropyl)Gly]YLN[Orn][NMeNle][Ahp(2)]PVSCG-NH2; thioether N-14)  31.8 nM

same assay, conditions: cell-based binding high-content assay, mVISTA; read-out: HC CBA miPr ISTA IC50

CCCCCCN1CC(=O)N[C@@H](Cc2ccc(O)cc2)C(=O)N[C@@H](CCCCN)C(=O)N[C@@H](CC(N)=O)C(=O)N[C@@H](CCCNC(=N)N)C(=O)N(C)[C@@H](CCCC)C(=O)N[C@@H](CCCCC)C(=O)N2CCC[C@H]2C(=O)N[C@@H](C(C)(C)C)C(=O)N[C@@H](CO)C(=O)N[C@H](C(=O)N[C@@H](CC(=O)NCCOCCOCC(=O)N[C@@H](CC(=O)O)C(=O)NCCOCCOCC(=O)NCCCCCCCCCCC(=O)O)C(=O)O)CSCC(=O)N[C@@H](Cc2ccccc2)C(=O)N[C@@H](Cc2ccc(O)cc2)C(=O)N[C@@H](CC(=O)O)C1=O [compound 2046] ({CH2CO}-FYD[NHexGly]YKNR[NMeNle][Ahp(2)]P[Tle]SC[βAsp][AEEA]D[AEEA][Aun]-OH; thioether N-14) gave an IC50 of 34.5 nM.

same assay, conditions: read-out: HC CBA mVISTA IC50

In order of falling IC50:
1. CCCCCCN1CC(=O)N[C@@H](Cc2ccc(O)cc2)C(=O)N[C@@H](CCCC)C(=O)N[C@@H](CC(N)=O)C(=O)N[C@@H](CCCNC(=N)N)C(=O)N(C)[C@@H](CCCC)C(=O)N[C@@H](CCCCC)C(=O)N2CCC[C@H]2C(=O)N[C@@H](C(C)(C)C)C(=O)N[C@@H](CO)C(=O)N[C@H](C(=O)N[C@@H](CC(=O)O)C(N)=O)CSCC(=O)N[C@@H](Cc2ccccc2)C(=O)N[C@@H](Cc2c[nH]c3ccccc23)C(=O)N[C@@H](CC(=O)O)C1=O [Example 1378] ({CH2CO}-FWD[NHexGly]Y[Nle]NR[NMeNle][Ahp(2)]P[Tle]SCD-NH2; thioether N-14)  41.3 nM
2. CCCCCCN1CC(=O)N[C@@H](Cc2ccc(O)cc2)C(=O)N[C@@H](CCCC)C(=O)N[C@@H](CC(N)=O)C(=O)N[C@@H](CCCNC(=N)N)C(=O)N(C)[C@@H](CCCC)C(=O)N[C@@H](CCCCC)C(=O)N2CCCC[C@H]2C(=O)N[C@@H](C(C)C)C(=O)N[C@@H](CO)C(=O)N[C@H](C(=O)N[C@@H](CC(=O)NCCOCCOCC(=O)NCCCCCCCCCCC(=O)O)C(=O)O)CSCC(=O)N[C@@H](Cc2ccccc2)C(=O)N[C@@H](Cc2c[nH]c3ccccc23)C(=O)N[C@@H](CC(=O)O)C1=O [Example 2186] ({CH2CO}-FWD[NHexGly]Y[Nle]NR[NMeNle][Ahp(2)][Pip]VSC[βAsp][AEEA][Aun]-OH; thioether N-14)  24.4 nM
3. CCCCCCN1CC(=O)N[C@@H](Cc2ccc(O)cc2)C(=O)N[C@@H](CC(C)C)C(=O)N[C@@H](CC(N)=O)C(=O)N[C@@H](CCCN)C(=O)N(C)[C@@H](C(C)C)C(=O)N[C@@H](CCCCC)C(=O)N2CCC[C@H]2C(=O)N[C@@H](C(C)(C)C)C(=O)N[C@@H](CO)C(=O)N[C@H](C(=O)N[C@@H](CCC(=O)NCCCCCCCCCCC(=O)O)C(=O)O)CSCC(=O)N[C@@H](Cc2ccccc2)C(=O)N[C@@H](Cc2ccc(O)cc2)C(=O)N[C@@H](CC(=O)O)C1=O [Example 2137] ({CH2CO}-FYD[NHexGly]YLN[Orn][NMeV][Ahp(2)]P[Tle]SC[γGlu][Aun]-OH; thioether N-14)  18 nM
4. CCCCCCN1CC(=O)N[C@@H](Cc2ccc(O)cc2)C(=O)N[C@@H](CCCC)C(=O)N[C@@H](CC(=O)O)C(=O)N[C@@H](CCCN)C(=O)N(C)[C@@H](CCCC)C(=O)N[C@@H](CCCCC)C(=O)N2CCC[C@H]2C(=O)N[C@@H](C(C)(C)C)C(=O)N[C@@H](CC(=O)O)C(=O)N[C@H](C(=O)NCC(N)=O)CSCC(=O)N[C@@H](Cc2ccccc2)C(=O)N[C@@H](Cc2c[nH]c3ccccc23)C(=O)N[C@@H](CC(=O)O)C1=O [Example 1393] ({CH2CO}-FWD[NHexGly]Y[Nle]D[Orn][NMeNle][Ahp(2)]P[Tle]DCG-NH2; thioether N-14)  17.2 nM
5. CCCCCCN1CC(=O)N[C@@H](Cc2ccc(O)cc2)C(=O)N[C@@H](CC(C)C)C(=O)N[C@@H](CC(N)=O)C(=O)N[C@@H](CCCNC(=N)N)C(=O)N(C)[C@@H](CCCC)C(=O)N[C@@H](CCCCC)C(=O)N2CCC[C@H]2C(=O)N[C@@H](C(C)(C)C)C(=O)N[C@@H](CO)C(=O)N[C@H](C(=O)NCCOCCOCC(=O)N[C@@H](CCC(=O)NCCOCCOCC(=O)NCCCCCCCCCCC(=O)O)C(=O)O)CSCC(=O)N[C@@H](Cc2ccccc2)C(=O)N[C@@H](Cc2c[nH]c3ccccc23)C(=O)N[C@@H](CC(=O)O)C1=O [compound 2268] ({CH2CO}-FWD[NHexGly]YLNR[NMeNle][Ahp(2)]P[Tle]SC[AEEA][γGlu][AEEA][Aun]-OH; thioether N-14)  16.1 nM
6. CCCCCCN1CC(=O)N[C@@H](Cc2ccc(O)cc2)C(=O)N[C@@H](CCCCC)C(=O)N[C@@H](CC(N)=O)C(=O)N[C@@H](CCCNC(=N)N)C(=O)N(C)[C@@H](CCCC)C(=O)N[C@@H](CCCCC)C(=O)N2CCC[C@H]2C(=O)N[C@@H](C(C)C)C(=O)N[C@@H](C(C)C)C(=O)N[C@H](C(=O)NCC(=O)O)CSCC(=O)N[C@@H](Cc2ccccc2)C(=O)N[C@@H](Cc2cccc(C)c2)C(=O)N[C@@H](CC(=O)O)C1=O [compound 1344] ({CH2CO}-F[Phe(3-Me)]D[NHexGly]Y[Ahp(2)]NR[NMeNle][Ahp(2)]PVVCG-OH; thioether N-14)  11 nM
